The structures appear in SMILES notation. Starred links: 1 amine or outer side, 2 acyl side, 3 side chain; linkers in the order of their positions; H or OH if unused. Positions of bridges follow the written chain, without caps; N, C: chain ends. Non-standard residues stand in square brackets, D forms with d. Residues, ends and D or L forms follow the SMILES beside them. Bip(4'-NHCO-C6H4-4-CH2COOH) = N[C@@H](Cc1ccc(-c2ccc(NC(=O)c3ccc(CC(=O)O)cc3)cc2)cc1)C(=O)O; X46 = O=C(Cc1cccc(C(=O)O)c1)Nc1ccc(-c2ccc(C[C@H](N[*:1])C(=O)[*:2])cc2)cc1; X5 = Cn1nc(C(=O)Nc2ccc(-c3ccc(C[C@H](N[*:1])C(=O)[*:2])cc3)cc2)c2ccccc21; dArg(ω-(2S)-2,3-diOHpropyl) = N=C(NCCC[C@@H](N)C(=O)O)NC[C@H](O)CO; dArg(ω-(3-HO-benzyl)) = N=C(NCCC[C@@H](N)C(=O)O)NCc1cccc(O)c1; dArg(ω-Bn(3-CH2OH)) = N=C(NCCC[C@@H](N)C(=O)O)NCc1cccc(CO)c1; Bip(4'-COOH) = N[C@@H](Cc1ccc(-c2ccc(C(=O)O)cc2)cc1)C(=O)O; Bip(4'-NHAc) = CC(=O)Nc1ccc(-c2ccc(C[C@H](N)C(=O)O)cc2)cc1; Ala(imidazol-2-yl) = N[C@@H](Cc1ncc[nH]1)C(=O)O; Ala(morpholin-4-yl) = N[C@@H](CN1CCOCC1)C(=O)O; Phe(3-CONH2) = NC(=O)c1cccc(C[C@H](N)C(=O)O)c1; Bip = N[C@@H](Cc1ccc(-c2ccccc2)cc1)C(=O)O; 2Pal = N[C@@H](Cc1ccccn1)C(=O)O; 3Pal = N[C@@H](Cc1cccnc1)C(=O)O; Tic = O=C(O)[C@@H]1Cc2ccccc2CN1; Cha = N[C@@H](CC1CCCCC1)C(=O)O; Sar = CNCC(=O)O

For orientation: IC50 means the concentration needed to halve the response being measured.

The target in this assay is TNFα (Homo sapiens, UniProt P01375). As to the kind of experiment: TNF-Induced HEK-Blue Assay. The class given is cell-based. The following applies: HEK-Blue-CD40L cells, NF-kB-driven secreted alkaline phosphatase reporter; TNFα 0.5 ng/ml; 18 h; read-out: TNF induced HEK-Blue assay IC50 value.
Chain of TNFα (P01375 77-233 limits assumed): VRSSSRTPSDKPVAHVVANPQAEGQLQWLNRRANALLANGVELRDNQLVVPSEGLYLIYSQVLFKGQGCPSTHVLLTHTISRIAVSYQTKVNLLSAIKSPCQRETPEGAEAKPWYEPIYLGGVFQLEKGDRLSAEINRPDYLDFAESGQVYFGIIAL
Turning to `CC(=O)Nc1ccc(-c2ccc(C[C@@H]3NC(=O)[C@H](Cc4ccc(-c5ccccc5)cc4)NC(=O)[C@H](CN4CCOCC4)NC(=O)CSC[C@@H](C(=O)NCC(N)=O)NC(=O)[C@H](CC(C)C)NC(=O)[C@H](CCCNC(=N)N)NC(=O)[C@H](C(C)C)NC(=O)[C@@H]4CCCN4C(=O)[C@H](C(C)C)NC(=O)[C@H](CCCNC(=N)N)NC(=O)[C@H](CC(=O)O)NC(=O)[C@H](Cc4ccc(O)cc4)NC(=O)CNC3=O)cc2)cc1` [Example 192] ({CH2CO}-[Ala(morpholin-4-yl)][Bip][Bip(4'-NHAc)]GYDRVPVRLCG-NH2; thioether N-13), the half-inhibitory concentration (IC50) is 50 to 200 nM.
For `CC[C@H](C)[C@@H]1NC(=O)[C@@H](CCCNC(=N)NCc2cccc(CO)c2)NC(=O)[C@H](CC(=O)O)NC(=O)[C@H](Cc2cnc[nH]2)NC(=O)CN(C)C(=O)[C@H](Cc2ccc(-c3ccc(NC(=O)c4nn(C)c5ccccc45)cc3)cc2)NC(=O)[C@H](Cc2ccc(-c3ccccc3)cc2)NC(=O)[C@H](CC2CCCCC2)NC(=O)CSC[C@@H](C(=O)NCC(N)=O)NC(=O)[C@H](CC(C)C)NC(=O)[C@H](Cc2cnc[nH]2)NC(=O)[C@H](C(C)C)NC(=O)[C@@H]2CCCN2C1=O` [Example 478] ({CH2CO}-[Cha][Bip][X5][Sar]HD[dArg(ω-Bn(3-CH2OH))]IPVHLCG-NH2; thioether N-13) the value was 50 to 200 nM.
Then `CC(C)C[C@@H]1NC(=O)[C@H](Cc2ncc[nH]2)NC(=O)[C@H](C(C)C)NC(=O)[C@@H]2CCCN2C(=O)[C@H](C(C)C)NC(=O)[C@@H](CCCNC(=N)NCc2cccc(O)c2)NC(=O)[C@H](CC(=O)O)NC(=O)[C@H](Cc2ccccn2)NC(=O)CN(C)C(=O)[C@H](Cc2ccc(-c3ccc(NC(=O)c4ccc(CC(=O)O)cc4)cc3)cc2)NC(=O)[C@H](Cc2ccc(-c3ccc(C(=O)O)cc3)cc2)NC(=O)[C@H](CC2CCCCC2)NC(=O)CSC[C@@H](C(=O)NCC(N)=O)NC1=O` [Example 554] ({CH2CO}-[Cha][Bip(4'-COOH)][Bip(4'-NHCO-C6H4-4-CH2COOH)][Sar][2Pal]D[dArg(ω-(3-HO-benzyl))]VPV[Ala(imidazol-2-yl)]LCG-NH2; thioether N-13), with below 50 nM; and `CC[C@H](C)[C@@H]1NC(=O)[C@@H](CCCNC(=N)N)NC(=O)[C@H](CC(=O)O)NC(=O)[C@H](Cc2cnc[nH]2)NC(=O)CN(C)C(=O)[C@H](Cc2ccc(-c3ccc(NC(=O)Cc4cccc(C(=O)O)c4)cc3)cc2)NC(=O)[C@H](Cc2ccc(-c3ccccc3)cc2)NC(=O)[C@H](CC2CCCCC2)NC(=O)CSC[C@@H](C(=O)NCC(N)=O)NC(=O)[C@H](CC(C)C)NC(=O)[C@H](Cc2cnc[nH]2)NC(=O)[C@H](C(C)C)NC(=O)[C@@H]2CCCN2C1=O` [Example 328] ({CH2CO}-[Cha][Bip][X46][Sar]HD[dR]IPVHLCG-NH2; thioether N-13), with 50 to 200 nM; and `CC(C)C[C@@H]1NC(=O)[C@H](CCCNC(=N)N)NC(=O)[C@H](C(C)C)NC(=O)[C@@H]2Cc3ccccc3CN2C(=O)[C@H](C(C)C)NC(=O)[C@H](CCCNC(=N)N)NC(=O)[C@H](CC(=O)O)NC(=O)[C@@H]2CCCN2C(=O)CN(C)C(=O)[C@H](Cc2ccc(-c3ccccc3)cc2)NC(=O)[C@H](Cc2ccc(-c3ccccc3)cc2)NC(=O)[C@H](CN2CCOCC2)NC(=O)CSC[C@@H](C(=O)NCC(N)=O)NC1=O` [Example 71] ({CH2CO}-[Ala(morpholin-4-yl)][Bip][Bip][Sar]PDRV[Tic]VRLCG-NH2; thioether N-13), with 50 to 200 nM.
For `CC(C)C[C@@H]1NC(=O)[C@H](Cc2ccc(O)cc2)NC(=O)[C@H](C(C)C)NC(=O)[C@@H]2CCCN2C(=O)[C@H](C(C)C)NC(=O)[C@@H](CCCNC(=N)N)NC(=O)[C@H](CC(=O)O)NC(=O)[C@H](Cc2ccc(O)cc2)NC(=O)CNC(=O)[C@H](Cc2ccc(-c3ccccc3)cc2)NC(=O)[C@H](Cc2ccc(-c3ccccc3)cc2)NC(=O)[C@H](CN2CCOCC2)NC(=O)CSC[C@@H](C(=O)NCC(N)=O)NC1=O` [Example 131] ({CH2CO}-[Ala(morpholin-4-yl)][Bip][Bip]GYD[dR]VPVYLCG-NH2; thioether N-13) the value was 50 to 200 nM; for `CC(C)C[C@@H]1NC(=O)[C@H](Cc2cccc(C(N)=O)c2)NC(=O)[C@H](C(C)C)NC(=O)[C@@H]2CCCN2C(=O)[C@H](C(C)C)NC(=O)[C@@H](CCCNC(=N)NC[C@H](O)CO)NC(=O)[C@H](CC(=O)O)NC(=O)[C@H](Cc2ccc(O)cc2)NC(=O)CN(C)C(=O)[C@H](Cc2ccc(-c3ccc(NC(=O)c4ccc(CC(=O)O)cc4)cc3)cc2)NC(=O)[C@H](Cc2ccc(-c3ccccc3)cc2)NC(=O)[C@H](CN2CCOCC2)NC(=O)CSC[C@@H](C(=O)NCC(N)=O)NC1=O` [Example 548] ({CH2CO}-[Ala(morpholin-4-yl)][Bip][Bip(4'-NHCO-C6H4-4-CH2COOH)][Sar]YD[dArg(ω-(2S)-2,3-diOHpropyl)]VPV[Phe(3-CONH2)]LCG-NH2; thioether N-13), 50 to 200 nM; for `CC(C)C[C@@H]1NC(=O)[C@H](Cc2ccc(O)cc2)NC(=O)[C@H](C(C)C)NC(=O)[C@H](Cc2cccnc2)NC(=O)[C@H](C(C)C)NC(=O)[C@H](CCCNC(=N)N)NC(=O)[C@H](CC(=O)O)NC(=O)[C@H](Cc2ccc(O)cc2)NC(=O)CN(C)C(=O)[C@H](Cc2ccc(-c3ccccc3)cc2)NC(=O)[C@H](Cc2ccc(-c3ccccc3)cc2)NC(=O)[C@H](CN2CCOCC2)NC(=O)CSC[C@@H](C(=O)NCC(N)=O)NC1=O` [Example 107] ({CH2CO}-[Ala(morpholin-4-yl)][Bip][Bip][Sar]YDRV[3Pal]VYLCG-NH2; thioether N-13), 50 to 200 nM.

The record behind these values is US20250145665A1, “MACROCYCLIC PEPTIDES USEFUL AS MODULATORS OF TNF ALPHA” (Bristol-Myers Squibb Company, priority 2023, published 2025).
